# Source: US11285127B2, “Compositions and methods for lowering triglycerides without raising LDL-C levels in a subject on concomitant statin therapy” (Amarin Pharmaceuticals Ireland Limited, priority 2013, dated 2022)
# Tested on: patients with fasting triglyceride levels >200 mg/dl and <500 mg/dl despite statin therapy
# Test: 12-week placebo-controlled study of >96% E-EPA: fasting triglycerides (TG), incl. TG goal
# Assay type: in vivo, human
# Details: for Median reduction in triglycerides compared to baseline / TG Median % chg from BL / TG, Diff from pbo (Hodges-Lehmann median difference) / TG, EOT (Week 12 endpoint) median / TG Diff from pbo (median % chg, Hodges-Lehmann) / TG EOT Median / Fasting Triglycerides, Week 12 EP Median (IQR): MITT; for Median reduction in triglycerides compared to baseline / Percentage Achieving TG Goal (less than 150 mg/dL): Week 12; for Fasting Triglycerides, Percent change from Baseline, Median (IQR) / Fasting Triglycerides, Difference from placebo, Estimated median: Week 12, MITT; for Fasting Triglycerides, Difference from placebo, Estimated median: difference in percent change
# Method: A multi-center, placebo-controlled, randomized, double-blind, 12-week study was performed to evaluate the efficacy and safety of >96% E-EPA in patients with fasting triglyceride levels >200 mg/dl and <500 mg/dl despite statin therapy (the mean of two qualifying entry values needed to be >185 mg/dl and at least one of the values needed to be >200 mg/dl). The primary objective of the study was to determine the efficacy of >96% E-EPA 2 g daily and 4 g daily, compared to placebo, in lowering fasting TG levels in patients with high risk for cardiovascular disease and with fasting TG levels 200 mg/dl and <500 mg/dl, despite treatment to LDL-C goal on statin therapy. The population for this study was men and women >18 years of age with a body mass index ≤45 kg/m^2 with fasting TG levels greater than or equal to 200 mg/dl and less than 500 mg/dl and on a stable does of statin therapy (with or without ezetimibe). The statin was atorvostatin, rosuvastatin or simvastatin. The dose of statin must have been stable for ≥4 weeks prior to the LDL-C/TG baseline qualifying measurement for randomization. The statin dose was optimized such that the patients are at their LDL-C goal at the LDL-C/TG baseline qualifying measurements. The same statin at the same dose was continued until the study ended. Approximately 702 patients were randomized at approximately 80 centers in the U.S. The study was a 18- to 20-week, Phase 3, multi-center study consisting of 2 study periods: (1) A 6- to 8-week screening period that included a diet and lifestyle stabilization, a non-statin lipid-altering treatment washout, and an LDL-C and TG qualifying period and (2) A 12-week, double-blind, randomized, placebo-controlled treatment period. After confirmation of qualifying fasting LDL-C and TG values, eligible patients entered a 12-week, randomized, double-blind treatment period. At Visit 4 (Week 0), patients were randomly assigned to 1 of the following treatment groups: • >96% E-EPA 2 g daily, • >96% E-EPA 4 g daily, or • Placebo. During the double-blind treatment period, patients were to take 2 capsules (>96% E-EPA or matching placebo) in the morning and 2 capsules in the evening for a total of 4 capsules per day. • Patients in the >96% E-EPA 2 g/day treatment group received 1>96% E-EPA 1 g capsule and 1 matching placebo capsule in the morning and in the evening. • Patients in the >96% E-EPA 4 g/day treatment group received 2>96% E-EPA 1 g capsules in the morning and evening. The primary efficacy variable for the double-blind treatment period was percent change in TG from baseline to Week 12 endpoint. The secondary efficacy variables for the double-blind treatment period included the following: • Percent changes in total cholesterol (TC), high-density lipoprotein cholesterol (HDL-C), LDL-C, calculated non-HDL-C, and very low-density lipoprotein cholesterol (VLDL-C) from baseline to Week 12 endpoint; • Percent change in very low-density lipoprotein TG from baseline to Week 12; • Percent changes in apolipoprotein A-I (Apo A-1), apolipoprotein B (Apo B), and Apo A-1/Apo B ratio from baseline to Week 12; • Percent changes in lipoprotein(a) from baseline to Week 12; • Percent changes in LDL particle number and size, measured by nuclear magnetic resonance, from baseline to Week 12; • Percent change in remnant-like particle cholesterol from baseline to Week 12; • Percent change in oxidized LDL from baseline to Week 12; • Changes in FPG and HbA1c from baseline to Week 12; • Change in insulin resistance, as assessed by the homeostasis model index insulin resistance, from baseline to Week 12; • Percent change in lipoprotein associated phospholipase A2 (Lp-PLA2) from baseline to Week 12; • Change in intracellular adhesion molecule-1 from baseline to Week 12; • Change in interleukin-2 from baseline to Week 12; • Change in plasminogen activator inhibitor-1 from baseline to Week 12. […]
# [1] = AMR 101 2 g + statin, Atorva subgroup
# [2] = AMR 101 2 g + statin, Rosuva subgroup
# [3] = AMR 101 2 g + statin, Simva subgroup
# [4] = AMR 101 2 g + statin, Statin Potency High
# [5] = AMR 101 2 g + statin, Statin Potency Low
# [6] = AMR 101 2 g + statin, Statin Potency Medium
# [7] = AMR 101 2 g + statin, Diabetes No, Week 12 endpoint
# [8] = AMR 101 2 g + statin, Diabetes Yes, Week 12 endpoint
# [9] = AMR 101 2 g + statin, Non-statin Washout No, Week 12 endpoint
# [10] = AMR 101 2 g + statin, Non-statin Washout Yes, Week 12 endpoint
# [11] = AMR 101 2 g + statin, baseline TG tertile Highest (≥289.5 mg/dL), Week 12 endpoint
# [12] = AMR 101 2 g + statin, baseline TG tertile Lowest (<230.5 mg/dL), Week 12 endpoint
# [13] = AMR 101 2 g + statin, baseline TG tertile Middle (230.5 to <289.5 mg/dL), Week 12 endpoint
# [14] = AMR 101 4 g + statin, Atorva subgroup
# [15] = AMR 101 4 g + statin, Rosuva subgroup
# [16] = AMR 101 4 g + statin, Simva subgroup
# [17] = AMR 101 4 g + statin, Statin Potency High
# [18] = AMR 101 4 g + statin, Statin Potency Low
# [19] = AMR 101 4 g + statin, Statin Potency Medium
# [20] = AMR 101 4 g + statin, Diabetes No, Week 12 endpoint
# [21] = AMR 101 4 g + statin, Diabetes Yes, Week 12 endpoint
# [22] = AMR 101 4 g + statin, Non-statin Washout No, Week 12 endpoint
# [23] = AMR 101 4 g + statin, Non-statin Washout Yes, Week 12 endpoint
# [24] = AMR 101 4 g + statin, baseline TG tertile Highest (≥289.5 mg/dL), Week 12 endpoint
# [25] = AMR 101 4 g + statin, baseline TG tertile Lowest (<230.5 mg/dL), Week 12 endpoint
# [26] = AMR 101 4 g + statin, baseline TG tertile Middle (230.5 to <289.5 mg/dL), Week 12 endpoint
# [27] = IPE 4 g/day (n = 216), 12 weeks, patients with lipoprotein data
structure (smiles),measurement,setting,value
"CC/C=C\C/C=C\C/C=C\C/C=C\C/C=C\CCCC(=O)OCC [AMR101, ethyl eicosapentaenoate]",Median reduction in triglycerides compared to baseline,2 g/day,2.6%
same,Percentage Achieving TG Goal (less than 150 mg/dL),2 g/day,3.8%
same,"Subjects who Achieved TG Goal (less than 150 mg/dL), number","2 g/day, Week 12, total n 234",9
same,Median reduction in triglycerides compared to baseline,4 g/day,17.5%
same,Percentage Achieving TG Goal (less than 150 mg/dL),4 g/day,7.1%
same,"Subjects who Achieved TG Goal (less than 150 mg/dL), number","4 g/day, Week 12, total n 226",16
same,TG Median % chg from BL,[1],−0.5%
same,"TG, Diff from pbo (Hodges-Lehmann median difference)",[1],−2.4
same,"TG, EOT (Week 12 endpoint) median",[1],245.0
same,TG Median % chg from BL,[2],−5.8%
same,"TG, Diff from pbo (Hodges-Lehmann median difference)",[2],−5.7
same,"TG, EOT (Week 12 endpoint) median",[2],252.5
same,TG Median % chg from BL,[3],−8.8%
same,"TG, Diff from pbo (Hodges-Lehmann median difference)",[3],−14.3
same,"TG, EOT (Week 12 endpoint) median",[3],241.3
same,TG Median % chg from BL,[4],−5.8%
same,"TG, Diff from pbo (Hodges-Lehmann median difference)",[4],−11.7
same,"TG, EOT (Week 12 endpoint) median",[4],239.5
same,TG Median % chg from BL,[5],−18.8%
same,"TG, Diff from pbo (Hodges-Lehmann median difference)",[5],−13.8
same,"TG, EOT (Week 12 endpoint) median",[5],208.5
same,TG Median % chg from BL,[6],−5.3%
same,"TG, Diff from pbo (Hodges-Lehmann median difference)",[6],−8.7
same,"TG, EOT (Week 12 endpoint) median",[6],248.0
same,"TG Diff from pbo (median % chg, Hodges-Lehmann)",[7],−10.8%
same,TG EOT Median,[7],245.0 mg/dL
same,TG Median % chg from BL,[7],−12.1%
same,"TG Diff from pbo (median % chg, Hodges-Lehmann)",[8],−9.8%
same,TG EOT Median,[8],244.0 mg/dL
same,TG Median % chg from BL,[8],−1.5%
same,"TG Diff from pbo (median % chg, Hodges-Lehmann)",[9],−10.7%
same,TG EOT Median,[9],229.0 mg/dL
same,TG Median % chg from BL,[9],−7.9%
same,"TG Diff from pbo (median % chg, Hodges-Lehmann)",[10],−9.5%
same,TG EOT Median,[10],249.5 mg/dL
same,TG Median % chg from BL,[10],−4.2%
same,"TG Diff from pbo (median % chg, Hodges-Lehmann)",[11],−16.9%
same,TG EOT Median,[11],320.3 mg/dL
same,TG Median % chg from BL,[11],−8.7%
same,"TG Diff from pbo (median % chg, Hodges-Lehmann)",[12],−4.1%
same,TG EOT Median,[12],207.8 mg/dL
same,TG Median % chg from BL,[12],0.7%
same,"TG Diff from pbo (median % chg, Hodges-Lehmann)",[13],−9.9%
same,TG EOT Median,[13],228.3 mg/dL
same,TG Median % chg from BL,[13],−13.0%
same,"Fasting Triglycerides, Week 12 EP Median (IQR)","AMR101 2 g/d + statin, n 234",244.3 (117.0)
same,"Fasting Triglycerides, Percent change from Baseline, Median (IQR)",AMR101 2g/d + statin,−5.6 (34.5) %
same,"Fasting Triglycerides, Difference from placebo, Estimated median",AMR101 2g/d + statin,−10.1
same,TG Median % chg from BL,[14],−23.9%
same,"TG, Diff from pbo (Hodges-Lehmann median difference)",[14],−28.4
same,"TG, EOT (Week 12 endpoint) median",[14],216.0
same,TG Median % chg from BL,[15],−20.5%
same,"TG, Diff from pbo (Hodges-Lehmann median difference)",[15],−23.4
same,"TG, EOT (Week 12 endpoint) median",[15],204.0
same,TG Median % chg from BL,[16],−14.7%
same,"TG, Diff from pbo (Hodges-Lehmann median difference)",[16],−18.8
same,"TG, EOT (Week 12 endpoint) median",[16],228.0
same,TG Median % chg from BL,[17],−20.2%
same,"TG, Diff from pbo (Hodges-Lehmann median difference)",[17],−26.0
same,"TG, EOT (Week 12 endpoint) median",[17],214.5
same,TG Median % chg from BL,[18],0.5%
same,"TG, Diff from pbo (Hodges-Lehmann median difference)",[18],−13.1
same,"TG, EOT (Week 12 endpoint) median",[18],256.8
same,TG Median % chg from BL,[19],−15.8%
same,"TG, Diff from pbo (Hodges-Lehmann median difference)",[19],−20.1
same,"TG, EOT (Week 12 endpoint) median",[19],221.0
same,"TG Diff from pbo (median % chg, Hodges-Lehmann)",[20],−16.8%
same,TG EOT Median,[20],234.5 mg/dL
same,TG Median % chg from BL,[20],−15.0%
same,"TG Diff from pbo (median % chg, Hodges-Lehmann)",[21],−23.2%
same,TG EOT Median,[21],216.5 mg/dL
same,TG Median % chg from BL,[21],−18.7%
same,"TG Diff from pbo (median % chg, Hodges-Lehmann)",[22],−20.8%
same,TG EOT Median,[22],220.0 mg/dL
same,TG Median % chg from BL,[22],−16.7%
same,"TG Diff from pbo (median % chg, Hodges-Lehmann)",[23],−22.4%
same,TG EOT Median,[23],220.8 mg/dL
same,TG Median % chg from BL,[23],−17.7%
same,"TG Diff from pbo (median % chg, Hodges-Lehmann)",[24],−31.1%
same,TG EOT Median,[24],260.0 mg/dL
same,TG Median % chg from BL,[24],−21.8%
same,"TG Diff from pbo (median % chg, Hodges-Lehmann)",[25],−14.4%
same,TG EOT Median,[25],183.5 mg/dL
same,TG Median % chg from BL,[25],−10.9%
same,"TG Diff from pbo (median % chg, Hodges-Lehmann)",[26],−17.9%
same,TG EOT Median,[26],205.0 mg/dL
same,TG Median % chg from BL,[26],−19.3%
same,"Fasting Triglycerides, Week 12 EP Median (IQR)","AMR101 4 g/d + statin, n 226",220.8 (92.0)
same,"Fasting Triglycerides, Percent change from Baseline, Median (IQR)",AMR101 4g/d + statin,−17.5 (31.0) %
same,"Fasting Triglycerides, Difference from placebo, Estimated median",AMR101 4g/d + statin,−21.5
same,"TG, Change From Baseline, % (median)",[27],−17.5%
same,"TG, End of Treatment (median)",[27],219.3 mg/dL
same,"TG, Median Change From Baseline IPE 4 g/day vs Placebo, %","IPE 4 g/day vs placebo, 12 weeks, Hodges-Lehmann median",−21.1%
